Consider 20 molecules from patent US10702504B2, “Degradation of tripartite motif-containing protein 24 (TRIM24) by conjugation of TRIM24 inhibitors with E3 ligase ligand and methods of use” (Dana-Farber Cancer Institute, Inc., priority 2016, dated 2020).

The target in the assay is PHD-bromodomain of TRIM24 (Homo sapiens (Human), UniProt O15164). The assay is described as follows: TRIM24 binding alpha assay. As to conditions: Alpha Assay binding to TRIM24; compounds 50 μM to 0.002 μM. The protocol: The alpha TRIM24 binding assay is used to assess the binding of the compounds of the application. Compounds are added at various concentrations as well as a vehicle control. Compounds that bind to TRIM24 compete away the interaction between the PHD-bromodomain of TRIM24 bound to the donor bead, and the H3K23ac histone peptide bound to the acceptor bead, which causes a decrease in signal. IC50 values are calculated.
Sequence of PHD-bromodomain of TRIM24 (O15164 824-1006): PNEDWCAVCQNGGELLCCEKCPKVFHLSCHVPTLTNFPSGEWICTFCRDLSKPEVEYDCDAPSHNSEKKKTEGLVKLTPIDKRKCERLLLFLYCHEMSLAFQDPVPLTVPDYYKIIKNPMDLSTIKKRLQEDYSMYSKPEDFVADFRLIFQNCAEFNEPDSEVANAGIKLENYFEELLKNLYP
The alpha assay was used to assess the binding of the compounds of the application to TRIM24 at various concentrations. All compounds were added at concentrations from 50 μM to 0.002 μM. Compounds that bind to TRIM24 compete with the PHD-bromodomain of TRIM24 in interacting with the donor bead, and the H3K23ac histone peptide bound to the acceptor bead, which causes a decrease in signal. IC50 values were calculated by using Graphpad PRISM's log(inhibitor) vs. response—variable slope (four parameters).
For the molecule `COc1ccc(Oc2cc3c(cc2NS(=O)(=O)c2ccc(OC)c(OC)c2)n(C)c(=O)n3C)cc1` [Cmpd A, reference compound], the IC50 was more than 500 nM. On to `CCCOc1cccc(Oc2cc3c(cc2NS(=O)(=O)c2cccc(C(=O)NCCOCCOCCOc4cc(-c5scnc5C)ccc4CNC(=O)[C@@H]4C[C@@H](O)CN4C(=O)[C@H](C(C)C)N4Cc5ccccc5C4=O)c2)n(C)c(=O)n3C)c1` [I-B1, (2S,4R)—N-(2-(2-(2-(2-(3-(N-(1,3-dimethyl-2-oxo-6-(3-propoxyphenoxy)-2,3-dihydro-1H-benzo[d]imidazol-5-yl)sulfamoyl)benzamido)ethoxy)ethoxy)ethoxy)-4-(4-methylthiazol-5-yl)benzyl)-4-hydroxy-1-((S)-3-methyl-2-(1-oxoisoindolin-2-yl)butanoyl)pyrrolidine-2-carboxamide], for which the IC50 was in the range of 100 to 500 nM. Turning to `CCCOc1cc(OCCCCN(C)C)cc(Oc2cc3c(cc2NS(=O)(=O)c2cccc(C(=O)NCCCOCCOCCOCCCNC(=O)COc4cccc5c4C(=O)N(C4CCC(=O)NC4=O)C5=O)c2)n(C)c(=O)n3C)c1` (centres unmarked) [I-A12, 3-(N-(6-(3-(4-(dimethylamino)butoxy)-5-propoxyphenoxy)-1,3-dimethyl-2-oxo-2,3-dihydro-1H-benzo[d]imidazol-5-yl)sulfamoyl)-N-(1-((2-(2,6-dioxopiperidin-3-yl)-1,3-dioxoisoindolin-4-yl)oxy)-2-oxo-7,10,13-trioxa-3-azahexadecan-16-yl)benzamide], the IC50 is less than 50 nM. The figure for `CCCOc1cccc(Oc2cc3c(cc2NS(=O)(=O)c2cccc(C(=O)NCCCCNC(=O)COc4cccc5c4C(=O)N(C4CCC(=O)NC4=O)C5=O)c2)n(C)c(=O)n3C)c1` (centres unmarked) [I-A4, 3-(N-(1,3-dimethyl-2-oxo-6-(3-propoxyphenoxy)-2,3-dihydro-1H-benzo[d]imidazol-5-yl)sulfamoyl)-N-(4-(2-((2-(2,6-dioxopiperidin-3-yl)-1,3-dioxoisoindolin-4-yl)oxy)acetamido)butyl)benzamide] is 50 to 100 nM; for `Cc1nc(S(=O)(=O)Nc2cc3c(cc2Oc2cccc(OCC(=O)NCCCOCCOCCOCCCNC(=O)COc4cccc5c4C(=O)N(C4CCC(=O)NC4=O)C5=O)c2)n(C)c(=O)n3C)cn1C` (centres unmarked) [I-A9, 2-(3-((6-((1,2-dimethyl-1H-imidazole)-4-sulfonamido)-1,3-dimethyl-2-oxo-2,3-dihydro-1H-benzo[d]imidazol-5-yl)oxy)phenoxy)-N-(1-((2-(2,6-dioxopiperidin-3-yl)-1,3-dioxoisoindolin-4-yl)oxy)-2-oxo-7,10,13-trioxa-3-azahexadecan-16-yl)acetamide] it is more than 500 nM; for `CCCOc1cccc(Oc2cc3c(cc2NS(=O)(=O)c2ccc(OC)c(OC)c2)n(C)c(=O)n3C)c1` [Cmpd D, reference compound] it is less than 50 nM.

The molecule `COc1ccc(S(=O)(=O)Nc2cc3c(cc2Oc2ccc(OCC(=O)NCCCOCCOCCOCCCNC(=O)COc4cccc5c4C(=O)N(C4CCC(=O)NC4=O)C5=O)cc2)n(C)c(=O)n3C)cc1OC` (centres unmarked) [I-A3, 2-(4-((6-((3,4-dimethoxyphenyl)sulfonamido)-1,3-dimethyl-2-oxo-2,3-dihydro-1H-benzo[d]imidazol-5-yl)oxy)phenoxy)-N-(1-((2-(2,6-dioxopiperidin-3-yl)-1,3-dioxoisoindolin-4-yl)oxy)-2-oxo-7,10,13-trioxa-3-azahexadecan-16-yl)acetamide] had an IC50 of more than 500 nM.

Molecule `COc1ccc(S(=O)(=O)Nc2cc3c(cc2Oc2ccc(OCC(=O)NCCCCCCCCNC(=O)COc4cccc5c4C(=O)N(C4CCC(=O)NC4=O)C5=O)cc2)n(C)c(=O)n3C)cc1OC` (centres unmarked) [I-A2, 2-(4-((6-((3,4-dimethoxyphenyl)sulfonamido)-1,3-dimethyl-2-oxo-2,3-dihydro-1H-benzo[d]imidazol-5-yl)oxy)phenoxy)-N-(8-(2-((2-(2,6-dioxopiperidin-3-yl)-1,3-dioxoisoindolin-4-yl)oxy)acetamido)octyl)acetamide] gave a 50% inhibitory concentration (IC50) of more than 500 nM. In turn, `CCCOc1cccc(Oc2cc3c(cc2NS(=O)(=O)c2cccc(C(=O)NCCCCCCCCNC(=O)COc4cccc5c4C(=O)N(C4CCC(=O)NC4=O)C5=O)c2)n(C)c(=O)n3C)c1` (centres unmarked) [I-A5, 3-(N-(1,3-dimethyl-2-oxo-6-(3-propoxyphenoxy)-2,3-dihydro-1H-benzo[d]imidazol-5-yl)sulfamoyl)-N-(8-(2-((2-(2,6-dioxopiperidin-3-yl)-1,3-dioxoisoindolin-4-yl)oxy)acetamido)octyl)benzamide] yielded an IC50 of 100 to 500 nM. Regarding `CCCOc1cccc(Oc2cc3c(cc2NS(=O)(=O)c2cccc(C(=O)NCCCCNC(=O)CC45CC6CC(CC(C6)C4)C5)c2)n(C)c(=O)n3C)c1` [Cmpd E, reference compound], the IC50 lay in the range of 100 to 500 nM.

In turn, `CCCOc1cc(OCCCCN(C)C)cc(Oc2cc3c(cc2NS(=O)(=O)c2cccc(C(=O)NCCCCNC(=O)COc4cccc5c4C(=O)N(C4CCC(=O)NC4=O)C5=O)c2)n(C)c(=O)n3C)c1` (centres unmarked) [I-A10, 3-(N-(6-(3-(4-(dimethylamino)butoxy)-5-propoxyphenoxy)-1,3-dimethyl-2-oxo-2,3-dihydro-1H-benzo[d]imidazol-5-yl)sulfamoyl)-N-(4-(2-((2-(2,6-dioxopiperidin-3-yl)-1,3-dioxoisoindolin-4-yl)oxy)acetamido)butyl)benzamide] had a half-maximal inhibitory concentration (IC50) of less than 50 nM. As to `CCCOc1cccc(Oc2cc3c(cc2NS(=O)(=O)c2cccc(C(=O)NCCCOCCOCCOCCCNC(=O)COc4cccc5c4C(=O)N(C4CCC(=O)NC4=O)C5=O)c2)n(C)c(=O)n3C)c1` (centres unmarked) [I-A6, 3-(N-(1,3-dimethyl-2-oxo-6-(3-propoxyphenoxy)-2,3-dihydro-1H-benzo[d]imidazol-5-yl)sulfamoyl)-N-(1-((2-(2,6-dioxopiperidin-3-yl)-1,3-dioxoisoindolin-4-yl)oxy)-2-oxo-7,10,13-trioxa-3-azahexadecan-16-yl)benzamide], the IC50 was less than 50 nM.

Molecule `CCCOc1cccc(Oc2cc3c(cc2NS(=O)(=O)c2cccc(C(=O)NCCOCCOCC(=O)N[C@H](C(=O)N4C[C@H](O)C[C@H]4C(=O)NCc4ccc(-c5scnc5C)cc4)C(C)(C)C)c2)n(C)c(=O)n3C)c1` [I-B2, (4R)-1-((S)-12-(tert-butyl)-1-(3-(N-(1,3-dimethyl-2-oxo-6-(3-propoxyphenoxy)-2,3-dihydro-1H-benzo[d]imidazol-5-yl)sulfamoyl)phenyl)-1,10-dioxo-5,8-dioxa-2,11-diazatridecan-13-oyl)-4-hydroxy-N-(4-(4-methylthiazol-5-yl)benzyl)pyrrolidine-2-carboxamide] had an IC50 of less than 50 nM. `CCCOc1cc(OCCCCN(C)C)cc(Oc2cc3c(cc2NS(=O)(=O)c2cccc(C(=O)NCCOCCOCCOCC(=O)N[C@H](C(=O)N4C[C@H](O)C[C@H]4C(=O)NCc4ccc(-c5scnc5C)cc4)C(C)(C)C)c2)n(C)c(=O)n3C)c1` [I-B4, (2S,4R)-1-((S)-15-(tert-butyl)-1-(3-(N-(6-(3-(4-(dimethylamino)butoxy)-5-propoxyphenoxy)-1,3-dimethyl-2-oxo-2,3-dihydro-H-benzo[d]imidazol-5-yl)sulfamoyl)phenyl)-1,13-dioxo-5,8,11-trioxa-2,14-diazahexadecan-16-oyl)-4-hydroxy-N-(4-(4-methylthiazol-5-yl)benzyl)pyrrolidine-2-carboxamide] had an IC50 of less than 50 nM. `COc1ccc(S(=O)(=O)Nc2cc3c(cc2Oc2ccc(OCC(=O)NCCCCNC(=O)COc4cccc5c4C(=O)N(C4CCC(=O)NC4=O)C5=O)cc2)n(C)c(=O)n3C)cc1OC` (centres unmarked) [I-A1, 2-(4-((6-((3,4-dimethoxyphenyl)sulfonamido)-1,3-dimethyl-2-oxo-2,3-dihydro-1H-benzo[d]imidazol-5-yl)oxy)phenoxy)-N-(4-(2-((2-(2,6-dioxopiperidin-3-yl)-1,3-dioxoisoindolin-4-yl)oxy)acetamido)butyl)acetamide] showed an IC50 of more than 500 nM.

Turning to `Cc1nc(S(=O)(=O)Nc2cc3c(cc2Oc2cccc(OCC(C)C)c2)n(C)c(=O)n3C)cn1C` [Cmpd C, reference compound], the IC50 is less than 50 nM. `COc1ccc(S(=O)(=O)Nc2cc3c(cc2Oc2cccc(OCc4ccccc4)c2)n(C)c(=O)n3C)cc1OC` [Cmpd B, reference compound] registered an IC50 of 50 to 100 nM. With `Cc1nc(S(=O)(=O)Nc2cc3c(cc2Oc2cccc(OCC(=O)NCCCCNC(=O)COc4cccc5c4C(=O)N(C4CCC(=O)NC4=O)C5=O)c2)n(C)c(=O)n3C)cn1C` (centres unmarked) [I-A7, 2-(3-((6-((1,2-dimethyl-1H-imidazole)-4-sulfonamido)-1,3-dimethyl-2-oxo-2,3-dihydro-1H-benzo[d]imidazol-5-yl)oxy)phenoxy)-N-(4-(2-((2-(2,6-dioxopiperidin-3-yl)-1,3-dioxoisoindolin-4-yl)oxy)acetamido)butyl)acetamide], the IC50 was more than 500 nM. Consider `Cc1nc(S(=O)(=O)Nc2cc3c(cc2Oc2cccc(OCC(=O)NCCCCCCCCNC(=O)COc4cccc5c4C(=O)N(C4CCC(=O)NC4=O)C5=O)c2)n(C)c(=O)n3C)cn1C` (centres unmarked) [I-A8, 2-(3-((6-((1,2-dimethyl-1H-imidazole)-4-sulfonamido)-1,3-dimethyl-2-oxo-2,3-dihydro-1H-benzo[d]imidazol-5-yl)oxy)phenoxy)-N-(8-(2-((2-(2,6-dioxopiperidin-3-yl)-1,3-dioxoisoindolin-4-yl)oxy)acetamido)octyl)acetamide], for which the IC50 is more than 500 nM. Molecule `CCCOc1cc(OCCCCN(C)C)cc(Oc2cc3c(cc2NS(=O)(=O)c2cccc(C(=O)NCCCCCCCCNC(=O)COc4cccc5c4C(=O)N(C4CCC(=O)NC4=O)C5=O)c2)n(C)c(=O)n3C)c1` (centres unmarked) [I-A11, 3-(N-(6-(3-(4-(dimethylamino)butoxy)-5-propoxyphenoxy)-1,3-dimethyl-2-oxo-2,3-dihydro-1H-benzo[d]imidazol-5-yl)sulfamoyl)-N-(8-(1-((2-(2,6-dioxopiperidin-3-yl)-1,3-dioxoisoindolin-4-yl)oxy)acetamido)octyl)benzamide] yielded an IC50 of less than 50 nM.
